Measured values: patent US20250312462A1, “PAK1 DEGRADERS AND METHODS OF USE THEREOF” (INSTITUTE FOR CANCER RESEARCH D/B/A THE RESEARCH INSTITUTE …, priority 2022, published 2025)

Key:
[1] = molecular target: RSK1(Kin.Dom.1-N-terminal) (Homo sapiens, UniProt Q15418); test: KINOMEscan; conditions: read-out: Percent Control
Protocol: (§1) The kinase engagement assay (KINOMEscan®) was performed by DiscoverX assessing binding abilities toward a set of kinases.

[2] = molecular target: MARK2 (Homo sapiens, UniProt Q7KZI7); test: KINOMEscan; conditions: read-out: Percent Control
Protocol: as §1

[3] = molecular target: MET(M1250T) (Homo sapiens, UniProt P08581, M1250T); test: KINOMEscan; conditions: read-out: Percent Control
Protocol: as §1

[4] = molecular target: TGFBR1 (Homo sapiens, UniProt P36897); test: KINOMEscan; conditions: read-out: Percent Control
Protocol: as §1

[5] = molecular target: PAK4 (Homo sapiens, UniProt O96013); test: Z'-LYTE FRET kinase inhibition assay; assay type: biochemical; set-up: purchased Invitrogen
Source text: […]. […] […].

[6] = molecular target: MAP4K5 (Homo sapiens, UniProt Q9Y4K4); test: KINOMEscan; conditions: read-out: Percent Control
Sequence of MAP4K5 (Q9Y4K4 whole entry): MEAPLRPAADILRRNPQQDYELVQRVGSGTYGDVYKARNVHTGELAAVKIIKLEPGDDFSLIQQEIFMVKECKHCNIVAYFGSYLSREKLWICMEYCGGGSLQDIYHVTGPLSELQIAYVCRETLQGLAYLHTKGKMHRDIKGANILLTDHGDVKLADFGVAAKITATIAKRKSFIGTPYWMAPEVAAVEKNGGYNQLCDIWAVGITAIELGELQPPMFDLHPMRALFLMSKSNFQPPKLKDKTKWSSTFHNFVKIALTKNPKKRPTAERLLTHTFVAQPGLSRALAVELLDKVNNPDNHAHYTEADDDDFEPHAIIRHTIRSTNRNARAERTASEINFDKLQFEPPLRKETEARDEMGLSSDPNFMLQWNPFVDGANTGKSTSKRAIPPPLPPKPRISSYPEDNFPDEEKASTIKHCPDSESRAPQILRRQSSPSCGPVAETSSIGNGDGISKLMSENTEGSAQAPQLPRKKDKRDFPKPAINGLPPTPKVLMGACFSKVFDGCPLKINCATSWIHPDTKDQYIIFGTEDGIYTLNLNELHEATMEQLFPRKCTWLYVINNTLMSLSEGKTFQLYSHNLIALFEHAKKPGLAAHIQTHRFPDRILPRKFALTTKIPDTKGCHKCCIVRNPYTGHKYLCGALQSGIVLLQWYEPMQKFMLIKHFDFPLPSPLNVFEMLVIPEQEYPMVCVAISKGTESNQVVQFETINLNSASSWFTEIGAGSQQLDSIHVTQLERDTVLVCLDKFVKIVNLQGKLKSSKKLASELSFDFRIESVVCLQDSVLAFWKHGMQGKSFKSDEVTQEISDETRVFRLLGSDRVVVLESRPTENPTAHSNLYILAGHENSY
Protocol: as §1

[7] = molecular target: CSNK1G1 (Homo sapiens, UniProt Q9HCP0); test: KINOMEscan; conditions: read-out: Percent Control
Protocol: as §1

[8] = molecular target: LCK (Homo sapiens, UniProt P06239); test: KINOMEscan; conditions: read-out: Percent Control
Protocol: as §1

[9] = molecular target: ULK2 (Homo sapiens, UniProt Q8IYT8); test: KINOMEscan; conditions: read-out: Percent Control
Protocol: as §1

[10] = molecular target: PRKD1 (Homo sapiens, UniProt Q15139); test: KINOMEscan; conditions: read-out: Percent Control
Protocol: as §1

[11] = tested on: MEK1 at S298; test: MEK phosphorylation in OVCAR3 and MCF7 cells, immunoblot; assay type: cell-based; conditions: 10 nM, 24 hours
Protocol: FIG. 3A is a series of Western blots showing OVCAR3 and MCF7 cells that were treated for 24 hours with DMSO, 10 nM BJG-05-039, or NVS-PAK1-1 as indicated. MEK and ERK phosphorylation was assessed by immunoblot with the indicated phosphorylation-specific antibodies. FIG. 3B is a Western blot showing MCF7 cells that were stably transduced with a doxycycline-regulated shRNA against PAK1. shRNA expression was induced by the indicated amounts of doxycycline and immunoblots were performed using cell lysates 24 hours post doxycycline addition. FIG. 3C is a Western blot showing MCF7 cells that were treated with vehicle or […] doxycycline. Immunoblots were performed using cell lysates 24 hours post doxycycline addition.
Cells were washed once in PBS and lysed in RIPA buffer (50 mM Tris-HCl, 150 mM NaCl, 0.25% (w/v) sodium deoxycholate, 1% (w/v) NP-40, pH 7.5) containing protease inhibitor cocktail (Roche) and phosphatase inhibitor cocktail (Roche) for 30 minutes on ice. […]
In certain cell lines, PAK1 has well-characterized functions in regulating proliferative signaling. […] As a readout for anti-PAK activity, phosphorylation of MEK1 at S298 was assessed, a direct target site for Group A PAKs (Coles, et al. (2002) Oncogene 21:2236-2244; Slack-Davis, et al. (2003) J. Cell. Biol., 162:281-291), as well as phosphorylation of the downstream target of MEK, ERK. […]

[12] = molecular target: KIT (Homo sapiens, UniProt P10721); test: KINOMEscan; conditions: read-out: Percent Control
Protocol: as §1

[13] = molecular target: FLT3(D835H) (Homo sapiens, UniProt P36888, D835H); test: KINOMEscan; conditions: read-out: Percent Control
Protocol: as §1

[14] = molecular target: IKK-beta (Homo sapiens, UniProt O14920); test: KINOMEscan; conditions: read-out: Percent Control
Protocol: as §1

[15] = molecular target: MAP3K4 (Homo sapiens, UniProt Q9Y6R4); test: KINOMEscan; conditions: read-out: Percent Control
Protocol: as §1

[16] = molecular target: ERK4 (Homo sapiens, UniProt P31152); test: KINOMEscan; conditions: read-out: Percent Control
Sequence of ERK4 (P31152 whole entry): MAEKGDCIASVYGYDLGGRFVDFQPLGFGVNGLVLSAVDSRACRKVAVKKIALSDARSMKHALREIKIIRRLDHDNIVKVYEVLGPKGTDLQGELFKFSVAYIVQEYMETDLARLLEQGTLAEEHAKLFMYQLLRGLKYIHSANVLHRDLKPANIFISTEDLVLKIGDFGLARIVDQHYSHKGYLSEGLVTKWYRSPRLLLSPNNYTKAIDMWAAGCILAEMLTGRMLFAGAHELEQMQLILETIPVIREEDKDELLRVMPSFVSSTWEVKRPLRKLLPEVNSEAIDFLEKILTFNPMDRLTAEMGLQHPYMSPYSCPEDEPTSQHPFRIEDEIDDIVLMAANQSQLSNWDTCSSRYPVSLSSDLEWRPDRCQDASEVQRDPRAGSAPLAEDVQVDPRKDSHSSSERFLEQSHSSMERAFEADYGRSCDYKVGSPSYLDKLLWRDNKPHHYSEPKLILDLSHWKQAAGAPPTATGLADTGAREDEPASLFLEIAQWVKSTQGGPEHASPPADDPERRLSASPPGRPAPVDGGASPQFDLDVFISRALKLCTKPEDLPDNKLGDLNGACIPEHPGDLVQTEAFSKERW
Protocol: as §1

[17] = molecular target: CAMK2G (Homo sapiens, UniProt Q13555); test: KINOMEscan; conditions: read-out: Percent Control
Protocol: as §1

[18] = molecular target: MEK3 (Homo sapiens, UniProt P46734); test: KINOMEscan; conditions: read-out: Percent Control
Sequence of MEK3 (P46734 whole entry): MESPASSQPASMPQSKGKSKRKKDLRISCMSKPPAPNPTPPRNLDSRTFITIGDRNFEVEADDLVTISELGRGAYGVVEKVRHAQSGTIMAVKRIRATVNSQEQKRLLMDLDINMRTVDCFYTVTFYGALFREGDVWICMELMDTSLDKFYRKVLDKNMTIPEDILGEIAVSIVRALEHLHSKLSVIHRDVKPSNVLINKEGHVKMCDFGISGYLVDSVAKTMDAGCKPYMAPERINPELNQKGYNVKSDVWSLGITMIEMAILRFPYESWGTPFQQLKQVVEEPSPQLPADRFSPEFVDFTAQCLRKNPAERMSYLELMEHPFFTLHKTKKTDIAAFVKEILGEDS
Protocol: as §1

[19] = molecular target: MKNK1 (Homo sapiens, UniProt Q9BUB5); test: KINOMEscan; conditions: read-out: Percent Control
Protocol: as §1

[20] = molecular target: CDKL2 (Homo sapiens, UniProt Q92772); test: KINOMEscan; conditions: read-out: Percent Control
Protocol: as §1

[21] = molecular target: BMPR2 (Homo sapiens, UniProt Q13873); test: KINOMEscan; conditions: read-out: Percent Control
Protocol: as §1

[22] = molecular target: DAPK1 (Homo sapiens, UniProt P53355); test: KINOMEscan; conditions: read-out: Percent Control
Protocol: as §1

[23] = molecular target: GRK4 (Homo sapiens, UniProt P32298); test: KINOMEscan; conditions: read-out: Percent Control
Sequence of GRK4 (P32298 whole entry): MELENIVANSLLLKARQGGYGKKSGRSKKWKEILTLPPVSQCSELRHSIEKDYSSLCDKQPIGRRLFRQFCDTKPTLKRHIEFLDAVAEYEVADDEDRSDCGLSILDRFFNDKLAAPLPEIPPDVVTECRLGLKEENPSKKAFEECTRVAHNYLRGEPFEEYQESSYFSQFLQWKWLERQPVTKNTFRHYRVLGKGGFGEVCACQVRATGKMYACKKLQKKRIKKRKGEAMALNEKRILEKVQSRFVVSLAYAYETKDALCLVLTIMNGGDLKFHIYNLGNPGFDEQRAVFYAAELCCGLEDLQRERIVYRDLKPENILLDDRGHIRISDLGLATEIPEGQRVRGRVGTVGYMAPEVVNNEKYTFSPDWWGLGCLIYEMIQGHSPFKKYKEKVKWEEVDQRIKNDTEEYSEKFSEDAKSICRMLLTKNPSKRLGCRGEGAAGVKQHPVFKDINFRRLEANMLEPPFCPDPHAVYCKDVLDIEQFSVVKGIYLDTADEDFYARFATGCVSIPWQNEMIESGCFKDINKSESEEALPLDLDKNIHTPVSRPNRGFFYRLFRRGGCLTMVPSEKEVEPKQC
Protocol: as §1

[24] = molecular target: AKT2 (Homo sapiens, UniProt P31751); test: KINOMEscan; conditions: read-out: Percent Control
Sequence of AKT2 (P31751 whole entry): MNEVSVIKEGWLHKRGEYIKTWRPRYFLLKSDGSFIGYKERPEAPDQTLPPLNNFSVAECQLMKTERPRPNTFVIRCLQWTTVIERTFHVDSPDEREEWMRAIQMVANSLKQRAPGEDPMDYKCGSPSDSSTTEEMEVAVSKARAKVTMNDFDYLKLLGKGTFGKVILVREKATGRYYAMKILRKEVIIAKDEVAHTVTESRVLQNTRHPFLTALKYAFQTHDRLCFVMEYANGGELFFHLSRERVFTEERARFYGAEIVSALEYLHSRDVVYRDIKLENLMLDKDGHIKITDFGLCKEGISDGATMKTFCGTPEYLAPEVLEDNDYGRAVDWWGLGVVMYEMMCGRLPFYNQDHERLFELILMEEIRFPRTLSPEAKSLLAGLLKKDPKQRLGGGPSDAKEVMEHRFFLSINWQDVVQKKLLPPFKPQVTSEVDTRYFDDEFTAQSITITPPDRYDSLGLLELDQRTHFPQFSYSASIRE
Protocol: as §1

[25] = molecular target: EPHA2 (Homo sapiens, UniProt P29317); test: KINOMEscan; conditions: read-out: Percent Control
Protocol: as §1

[26] = molecular target: PIK3CA(I800L) (Homo sapiens, UniProt P42336, I800L); test: KINOMEscan; conditions: read-out: Percent Control
Sequence of PIK3CA(I800L) (P42336 whole entry I800L): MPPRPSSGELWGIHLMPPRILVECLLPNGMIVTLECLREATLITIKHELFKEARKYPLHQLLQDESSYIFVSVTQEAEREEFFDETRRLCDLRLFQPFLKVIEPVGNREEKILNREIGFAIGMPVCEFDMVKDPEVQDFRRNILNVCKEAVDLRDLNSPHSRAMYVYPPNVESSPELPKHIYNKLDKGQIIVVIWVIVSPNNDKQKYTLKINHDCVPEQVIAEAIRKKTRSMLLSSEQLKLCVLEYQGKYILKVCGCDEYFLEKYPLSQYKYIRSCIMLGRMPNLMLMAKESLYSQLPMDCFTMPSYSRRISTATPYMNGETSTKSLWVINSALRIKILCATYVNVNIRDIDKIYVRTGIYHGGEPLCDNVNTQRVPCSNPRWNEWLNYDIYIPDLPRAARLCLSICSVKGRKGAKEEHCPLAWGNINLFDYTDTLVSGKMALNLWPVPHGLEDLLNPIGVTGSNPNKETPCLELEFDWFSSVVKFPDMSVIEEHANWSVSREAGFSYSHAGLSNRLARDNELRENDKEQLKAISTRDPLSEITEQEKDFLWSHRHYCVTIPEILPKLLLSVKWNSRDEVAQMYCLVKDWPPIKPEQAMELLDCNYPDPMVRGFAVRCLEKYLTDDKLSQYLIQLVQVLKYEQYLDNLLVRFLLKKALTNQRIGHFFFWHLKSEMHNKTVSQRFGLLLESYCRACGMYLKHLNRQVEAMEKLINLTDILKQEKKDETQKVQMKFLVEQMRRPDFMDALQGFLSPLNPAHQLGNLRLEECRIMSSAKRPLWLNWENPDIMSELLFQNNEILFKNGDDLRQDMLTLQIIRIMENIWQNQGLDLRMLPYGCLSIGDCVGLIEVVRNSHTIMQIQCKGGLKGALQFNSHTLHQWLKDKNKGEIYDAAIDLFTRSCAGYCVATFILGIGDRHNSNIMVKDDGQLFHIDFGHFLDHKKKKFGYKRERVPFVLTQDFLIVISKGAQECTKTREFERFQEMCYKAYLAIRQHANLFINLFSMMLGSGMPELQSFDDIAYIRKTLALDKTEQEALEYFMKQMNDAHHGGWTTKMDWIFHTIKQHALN
Protocol: as §1

Sequence of MARK2 (Q7KZI7 whole entry): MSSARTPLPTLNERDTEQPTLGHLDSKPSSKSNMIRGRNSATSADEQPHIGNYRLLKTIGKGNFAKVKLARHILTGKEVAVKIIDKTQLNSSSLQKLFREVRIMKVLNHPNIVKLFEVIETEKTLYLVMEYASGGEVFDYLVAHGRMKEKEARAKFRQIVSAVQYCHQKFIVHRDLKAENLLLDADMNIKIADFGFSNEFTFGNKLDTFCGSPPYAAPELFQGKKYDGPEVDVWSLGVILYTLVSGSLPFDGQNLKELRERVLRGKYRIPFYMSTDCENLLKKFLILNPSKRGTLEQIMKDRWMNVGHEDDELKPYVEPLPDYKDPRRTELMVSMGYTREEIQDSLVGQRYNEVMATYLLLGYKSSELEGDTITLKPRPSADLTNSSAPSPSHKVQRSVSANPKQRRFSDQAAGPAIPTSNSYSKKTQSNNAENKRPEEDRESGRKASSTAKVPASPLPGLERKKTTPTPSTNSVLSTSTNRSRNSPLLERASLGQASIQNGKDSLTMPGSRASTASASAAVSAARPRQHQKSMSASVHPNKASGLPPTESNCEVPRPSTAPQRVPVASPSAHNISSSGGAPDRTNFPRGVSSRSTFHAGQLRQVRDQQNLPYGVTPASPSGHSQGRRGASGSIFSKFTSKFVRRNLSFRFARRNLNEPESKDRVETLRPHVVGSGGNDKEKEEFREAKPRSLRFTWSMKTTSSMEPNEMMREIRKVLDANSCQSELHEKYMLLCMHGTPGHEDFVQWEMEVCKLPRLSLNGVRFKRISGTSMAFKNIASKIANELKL
Sequence of RSK1(Kin.Dom.1-N-terminal) (Q15418 62-321 limits assumed): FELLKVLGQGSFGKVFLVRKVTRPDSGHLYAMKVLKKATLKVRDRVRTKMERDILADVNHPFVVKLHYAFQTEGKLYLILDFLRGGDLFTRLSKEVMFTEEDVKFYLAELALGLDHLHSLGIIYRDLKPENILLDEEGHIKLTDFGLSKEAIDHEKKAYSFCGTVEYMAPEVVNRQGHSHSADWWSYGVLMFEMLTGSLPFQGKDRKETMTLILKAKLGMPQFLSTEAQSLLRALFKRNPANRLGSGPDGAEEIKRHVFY

Q: What does the source list for O=C1CCC(N2C(=O)c3cccc(NCCCCCCCCNC(=O)N4CC[C@H](NC5=Nc6cc(F)ccc6N(CC(F)F)c6ccc(Cl)cc65)C4)c3C2=O)C(=O)N1 (stereo partly drawn) [BJG-05-039, (3S)-3-((2-Chloro-5-(2,2-difluoroethyl)-8-fluoro-5H-dibenzo[b,e][1,4]diazepin-11-yl)amino)-N-(8-((2-(2,6-dioxopiperidin-3-yl)-1,3-dioxoisoindolin-4-yl)amino)octyl)pyrrolidine-1-carboxamide]?
A: remaining binding at 10 µM [1]: 87%; remaining binding at 10 µM [2]: 38%; remaining binding at 10 µM [3]: 61%; remaining binding at 10 µM [4]: 100%; IC50 [5]: > 10 µM; remaining binding at 10 µM [6]: 59%; remaining binding at 10 µM [7]: 52%; remaining binding at 10 µM [8]: 91%; remaining binding at 10 µM [9]: 82%; remaining binding at 10 µM [10]: 81%; Phosphorylation of MEK S298 [11]: inhibited phosphorylation of MEK S298; remaining binding at 10 µM [12]: 82%; remaining binding at 10 µM [13]: 83%; remaining binding at 10 µM [14]: 94%; remaining binding at 10 µM [15]: 95%; remaining binding at 10 µM [16]: 52%; remaining binding at 10 µM [17]: 51%; remaining binding at 10 µM [18]: 94%; remaining binding at 10 µM [19]: 100%; remaining binding at 10 µM [20]: 77%; remaining binding at 10 µM [21]: 100%; remaining binding at 10 µM [22]: 47%; remaining binding at 10 µM [23]: 71%; remaining binding at 10 µM [24]: 86%; remaining binding at 10 µM [25]: 82%; remaining binding at 10 µM [26]: 100%
